What all share (format): cell-based
The subject of experiment [1] is E. coli clinical strain UT189. The experiment can be described thus: Inhibition of biofilm formation, crystal violet, 96 well plates. To be noted: Escherichia coli, compared to the controls, read-out: inhibited biofilm formation of the UT189 strain. The procedure: (§1) Biofilm inhibition experiments were conducted using an assay adapted from the reported protocol described in Pratt and Kolter, 1998, Molecular Microbiology, 30: 285-293; Li et al., 2001, J. Bacteriol., 183: 897-908. E. coli clinical strain UT189 was grown in LB in 96 well plates at room temperature for one or two days without shaking. E. coli laboratory strain JM109 was grown in LB plus 0.2% glucose in 96 well plates at room temperature for one day without shaking. To quantify the biofilm mass, the suspension culture was poured out and the biofilm was washed three times with water. The biofilm was stained with 0.1% crystal violet for 20 minutes. The plates were then washed three times with water. OD reading at 540 nm was measured to quantify the biofilm mass at the bottom of the wells. Then 95% ethanol was added to dissolve the dye at the bottom and on the wall and the OD reading at 540 nm was measured to quantify the total biofilm mass. To study the overall effect of the compounds (3.6 mg/mL in 100% ethanol as stock solution), it was added with the inoculation and a time course of biofilm mass was measured. Appropriate amounts of 100% ethanol were added to each sample to eliminate the effect of solvent. Each condition had 3-4 replicates on each plate and was performed over multiple days.

Experiment [2] has as its system E. coli laboratory strain JM109. The experiment is described as above. To be noted: Escherichia coli, JM 109, compared to the controls, read-out: inhibited biofilm formation of the JM109 strain. The procedure:
as §1

Another experiment deals with E. coli (ATCC 25922). The experiment can be described thus: Antibacterial effect (MIC), NCCLS procedures. To be noted: Escherichia coli, ATCC25922; studied at 64 μg/mL; read-out: MIC (minimal inhibitory concentration). The procedure:
(§2) Using the appropriate NCCLS procedures, the antibacterial effect of asiatic acid on Haemophilus influenzae (ATCC 10211), E. coli (ATCC 25922), and P. aeruginosa (ATCC 27853) was studied at 64 μg/mL.

For experiment [3], the system named is Haemophilus influenzae (ATCC 10211). The experiment can be described thus: Antibacterial effect (MIC), NCCLS procedures. To be noted: ATCC10211, studied at 64 μg/mL, read-out: MIC (minimal inhibitory concentration). As to the method: as §2
In experiment [4] the test system is P. aeruginosa (ATCC 27853). The experiment can be described thus: Antibacterial effect (MIC), NCCLS procedures. To be noted: Pseudomonas aeruginosa, ATCC27853; studied at 64 μg/mL; read-out: MIC (minimal inhibitory concentration). The procedure:
as §2

A further experiment has as its system S. mutans 25175. The experiment can be described thus: Biofilm growth inhibition in 1 mL polycarbonate tubes. The following applies: Streptococcus mutans, 40 μg/mL.
Experiment [5] has as its system E. coli clinical strain UT189 against bladder epithelial cells. The experiment can be described thus: Binding to and invasion of bladder epithelial cells by E. coli. To be noted: 40 μg/ml, 60 minutes; separate experiments (n=4 to 7). The procedure: The effect of test compounds on bacterial invasion of E. coli clinical strain UT189 was studied as described in Elsinghorst, et al. 1994, Methods Enzymol, 236:405-420; and Martinez et al., 2000, EMBO J., 19:2803-2812. Epithelial bladder cells were grown in plates. Asiatic acid, corosolic acid, or ursolic acid were added at concentrations of 10 μg/ml, 20 μg/ml, or 40 μg/ml to bacteria and epithelial cells for approximately 5, 15, 30, or 60 minutes with approximately 10^7 CFU of E. coli. Binding was assessed at time zero and invasion was assessed at approximately 5, 15, 30, or 60 minutes from completing the mixture of compound, bacteria, and epithelial cells. As a control ethanol was added to cells to a final concentration of 0.1%. The effect of bacterial viability and bacterial adherence during the infection period was evaluated according to the methods described in Martinez et al., 2000, EMBO J., 19:2803-2812.

As for `C[C@H]1[C@H](C)CC[C@]2(C(=O)O)CC[C@]3(C)C(=CC[C@@H]4[C@@]5(C)C[C@@H](O)[C@H](O)[C@@](C)(CO)[C@@H]5CC[C@]43C)[C@H]12` [Asiatic acid], the inhibition at 4 µg/mL in experiment [1] (4 ug/ml) is roughly 10%. Besides, the inhibition at 8 µg/mL in experiment [1] (8 ug/ml) is roughly 15%. Besides, the inhibition at 16 µg/mL in experiment [1] (16 ug/ml) is roughly 50%. Moreover, in experiment [1] (32 ug/ml), the inhibition at 32 µg/mL was roughly 90%. Besides, the inhibition at 5 µg/mL in experiment [2] (5 ug/ml) is roughly 70%. Further, the inhibition at 10 µg/mL in experiment [2] (10 ug/ml) was roughly 80%. For the same compound, the MIC (in the experiment on E. coli (ATCC 25922); in experiment [3]; in experiment [4]) was greater than 64 µg/mL each time. Further, in the experiment with S. mutans 25175, the inhibition at 40 µg/mL is greater than 75%. Moreover, the “reduced invasion of E. coli into bladder epithelial cells” value in experiment [5] was 87%.

Values taken from patent publication US20070014739A1, “Compositions and methods for controlling biofilms and bacterial infections” (priority 2005, published 2007).
